Measured values reported in patent US20250275959A1, “COMPOUNDS AND METHODS OF THEIR USE” (LEXICON PHARMACEUTICALS, INC., priority 2024, published 2025).

Experiment: Murine diet-induced obesity (DIO) model, Compounds B-D study
Type: in vivo, C57BL/6J mice
Details: DIO mice; for mean adipose weights versus control group: abdominal adipose tissue
Procedure: The effects of four representative compounds of the invention were tested in a mouse model of diet-induced obesity (DIO): • Compound A is (R)—N-(tert-butylsulfonyl)-4-(1-(5-(pyridin-3-yloxy)pyridin-2-yl)ethoxy)-3-(trifluoromethyl)benzamide; • Compound B is (R)-4-(1-(5-(cyclopropylmethoxy)pyridin-2-yl)propoxy)-N-((4-(2-(dimethylamino)ethoxy)phenyl)sulfonyl)-2,3-difluorobenzamide; • Compound C is (R)—N-((4-(2-(dimethylamino)ethoxy)piperidin-1l-yl)sulfonyl)-2,3-difluoro-4-(1-(5-(pyridin-2-yloxy)pyridin-2-yl)propoxy)benzamide; and • Compound D is (R)-2,3-difluoro-N-((4-methylpiperazin-1-yl)sulfonyl)-4-(1-(5-(pyridin-2-yloxy)pyridin-2-yl)propoxy)benzamide.
The mice used in these experiments were C57BL/6J mice fed a high-fat diet (D12492 from Research Diets) ad libitum during the study period. The vehicle and test article formulations were 10% w/v Solutol in water.
In this study, three compounds tested at 30 mg/kg were compared against vehicle control over a month. After their acclimation period, DIO mice were equally divided into groups of ten mice each based on body weight. The animals were pre-dosed for three days prior to formal dosing (once per day treatment every group), as well as weight and food intake were recorded from Day −2 onwards. From Day 1 to Day 27, the animals in the dosing group were administered orally by gavage at 5:00 p.m. every day. All animals were fasted overnight after dosing on Day 28 and Day 29. Then the blood (retro-orbital bleed) of mice from each group was collected at 7:00 a.m. to separate out the serum for measuring total cholesterol levels (TC), triglyceride (TG), aminotransferase alanine (ALT), aspartate aminotransferase (AST) and total bilirubin (TBil) levels on Day 29. On day 30, all animals were performed OGTT test (0 min, 15 min, 30 min, 60 min, 90 min and 120 min) and measured insulin levels (0 min, 15 min, 30 min and 60 min). On day 32, all animals were injected insulin after 4 hours fasting, then performed ITT test (0 min, 15 min, 30 min, 60 min and 90 min). On day 33, Epididymal white adipose tissue (eWAT), jejunum, liver, heart and brain were collected; eWAT, liver and heart weights were recorded. All of the adipose tissue in the abdominal cavity was collected and weighted, and the fatty tissue coefficient (body fat ratio) was calculated and then stored at −80° C. for inspection.
• 1. Body weight and Food Consumption: Pre-dose every day from Day −2 onwards. • 2. Day −2,—1 and Day 0: Handle mice and gavage with vehicle. • 3. Day 1˜27: Dose˜5:00 PM. • 4. Day 28: Dose˜5:00 PM. Fast overnight. • 5. Day 29: Determine total cholesterol levels and triglyceride, ALT, AST, total bilirubin levels˜7:00 AM. Resume feeding. • 6. Day 29: Dose˜5:00 PM. Fast overnight. • 7. Day 30: (No drug administration) Oral glucose tolerance test (OGTT) with glucose levels measured at Pre-dose, 15 min, 30 min, 60 min, 90 min and 120 min after the glucose challenge. And insulin levels will be test at time 0 min, 15 min, 30 min and 60 min after the glucose challenge. • 8. Day 30˜31: Dose˜5:00 PM. • 9. Day 32: (No drug administration) ITT test (two days after the OGTT test): Fast 4 h. After insulin injection, the levels of glucose will be measured at Pre-dose, 15 min, 30 min, 60 min and 90 min. • 10. After the ITT test. Collect serum with a terminal bleed from all 50 mice. • 11. Collect epidydimal WAT (eWAT) pad, jejunum, liver, heart, and brain. • 12. Record eWAT, liver, and heart weights. • 13. Before freezing tissue/serum: • (i) Assess Drug Concentration; serum, liver, eWAT, heart, jujenum, and brain. (25 serum samples; 5 mice/group will progress to biomarker study and remaining 25 serum samples saved for future analysis). • 14. Prepare liver, heart and eWAT tissue for histopathology analysis. • (ii) Liver for all 50 mice; HE staining to assess liver steatosis. • (iii) Heart or all 50 mice; HE and DAPI staining to assess cardiac morphology. […]

SMILES | mean body weight versus control group (30 mg/kg oral daily) | overall food consumption versus control group (30 mg/kg oral daily) | Body Weight (g)/Day (30 mg/kg oral daily, Day 1) [g] | Body Weight (g)/Day (30 mg/kg oral daily, Day 2) [g] | Body Weight (g)/Day (30 mg/kg oral daily, Day 3) [g] | Body Weight (g)/Day (30 mg/kg oral daily, Day 4) [g] | Body Weight (g)/Day (30 mg/kg oral daily, Day 5) [g] | Body Weight (g)/Day (30 mg/kg oral daily, Day 6) [g] | Body Weight (g)/Day (30 mg/kg oral daily, Day 7) [g] | Body Weight (g)/Day (30 mg/kg oral daily, Day 8) [g] | Body Weight (g)/Day (30 mg/kg oral daily, Day 9) [g] | Body Weight (g)/Day (30 mg/kg oral daily, Day 10) [g] | Body Weight (g)/Day (30 mg/kg oral daily, Day 11) [g] | Body Weight (g)/Day (30 mg/kg oral daily, Day 12) [g] | Body Weight (g)/Day (30 mg/kg oral daily, Day 13) [g] | Body Weight (g)/Day (30 mg/kg oral daily, Day 14) [g] | Body Weight (g)/Day (30 mg/kg oral daily, Day 15) [g] | Body Weight (g)/Day (30 mg/kg oral daily, Day 16) [g] | Body Weight (g)/Day (30 mg/kg oral daily, Day 17) [g] | Body Weight (g)/Day (30 mg/kg oral daily, Day 18) [g] | also measured
CC[C@@H](Oc1ccc(C(=O)NS(=O)(=O)c2ccc(OCCN(C)C)cc2)c(F)c1F)c1ccc(OCC2CC2)cn1 [Compound B, (R)-4-(1-(5-(cyclopropylmethoxy)pyridin-2-yl)propoxy)-N-((4-(2-(dimethylamino)ethoxy)phenyl)sulfonyl)-2,3-difluorobenzamide] | significantly lower than that of the control group from Day 15 to the end | significantly lower than that of the control group | 42.2 ± 4.7 | 42.2 ± 4.5 | 42.3 ± 4.7 | 43 ± 3.9 | 43.1 ± 3.9 | 43 ± 4.1 | 42.8 ± 4 | 43.1 ± 4.3 | 42.9 ± 4.5 | 43.3 ± 4.5 | 43.1 ± 4.6 | 42.7 ± 4.6 | 42.5 ± 4.6 | 42.3 ± 4.6 | 42.6 ± 4.5 | 42.5 ± 4.5 | 41.7 ± 4.6 | 42.1 ± 4.8 | Body Weight (g)/Day (30 mg/kg oral daily, Day 19): 42.2 ± 4.7 g; Body Weight (g)/Day (30 mg/kg oral daily, Day 20): 42.2 ± 4.5 g; Body Weight (g)/Day (30 mg/kg oral daily, Day 21): 42.3 ± 4.7 g; Body Weight (g)/Day (30 mg/kg oral daily, Day 22): 42.4 ± 4.7 g; Body Weight (g)/Day (30 mg/kg oral daily, Day 23): 42.6 ± 4.7 g; Body Weight (g)/Day (30 mg/kg oral daily, Day 24): 42.6 ± 4.4 g; Body Weight (g)/Day (30 mg/kg oral daily, Day 25): 42.5 ± 4.8 g; Body Weight (g)/Day (30 mg/kg oral daily, Day 26): 42.8 ± 4.7 g; Body Weight (g)/Day (30 mg/kg oral daily, Day 27): 43 ± 4.8 g; Body Weight (g)/Day (30 mg/kg oral daily, Day 28): 42.9 ± 4.7 g; Body Weight (g)/Day (30 mg/kg oral daily, Day 29): 42.3 ± 4.4 g; Body Weight (g)/Day (30 mg/kg oral daily, Day 30): 40.4 ± 4.2 g; Body Weight (g)/Day (30 mg/kg oral daily, Day 31): 40.9 ± 4.2 g; Body Weight (g)/Day (30 mg/kg oral daily, Day 32): 40.3 ± 4.1 g; Body Weight (g)/Day (30 mg/kg, Day 0 (pre-dose)): 42.1 ± 4.8 g; eWAT coefficient versus control group (30 mg/kg, Day 33): slightly lower than that of the control group; Body Weight (g)/Day (30 mg/kg, Day −1 (pre-dose)): 41.7 ± 4.6 g; Body Weight (g)/Day (30 mg/kg, Day −2 (pre-dose)): 42.5 ± 4.5 g; mean adipose weights versus control group (30 mg/kg): significantly lower than that of the control group; ITT blood glucose versus control group (Day 32, at 30 minutes and 60 minutes after insulin): significantly lower than that of the control group
CC[C@@H](Oc1ccc(C(=O)NS(=O)(=O)N2CCC(OCCN(C)C)CC2)c(F)c1F)c1ccc(Oc2ccccn2)cn1 [Compound C, (R)-N-((4-(2-(dimethylamino)ethoxy)piperidin-1-yl)sulfonyl)-2,3-difluoro-4-(1-(5-(pyridin-2-yloxy)pyridin-2-yl)propoxy)benzamide] | significantly lower than that of the control group from Day 23 | significantly lower than that of the control group | 45 ± 4.9 | 44.8 ± 5 | 44.3 ± 4.9 | 44.3 ± 4.9 | 44.1 ± 4.9 | 44 ± 4.7 | 43.5 ± 4.9 | 44 ± 5 | 44.2 ± 4.8 | 44.2 ± 4.7 | 44.4 ± 4.8 | 43.9 ± 4.9 | 43.7 ± 4.7 | 43.7 ± 4.7 | 43.9 ± 4.8 | 44.1 ± 4.8 | 43.5 ± 4.7 | 43.6 ± 4.6 | Body Weight (g)/Day (30 mg/kg oral daily, Day 19): 43.9 ± 4.9 g; Body Weight (g)/Day (30 mg/kg oral daily, Day 20): 44.1 ± 4.8 g; Body Weight (g)/Day (30 mg/kg oral daily, Day 21): 44.2 ± 5 g; Body Weight (g)/Day (30 mg/kg oral daily, Day 22): 44.1 ± 5.1 g; Body Weight (g)/Day (30 mg/kg oral daily, Day 23): 44.1 ± 5.3 g; Body Weight (g)/Day (30 mg/kg oral daily, Day 24): 43.8 ± 5.3 g; Body Weight (g)/Day (30 mg/kg oral daily, Day 25): 43.9 ± 5.2 g; Body Weight (g)/Day (30 mg/kg oral daily, Day 26): 43.9 ± 5.2 g; Body Weight (g)/Day (30 mg/kg oral daily, Day 27): 44.1 ± 5.2 g; Body Weight (g)/Day (30 mg/kg oral daily, Day 28): 43.9 ± 5.3 g; Body Weight (g)/Day (30 mg/kg oral daily, Day 29): 43.2 ± 5.2 g; Body Weight (g)/Day (30 mg/kg oral daily, Day 30): 41.4 ± 5 g; Body Weight (g)/Day (30 mg/kg oral daily, Day 31): 41.6 ± 5.2 g; Body Weight (g)/Day (30 mg/kg oral daily, Day 32): 41 ± 5 g; Body Weight (g)/Day (30 mg/kg, Day 0 (pre-dose)): 44.9 ± 5.1 g; Body Weight (g)/Day (30 mg/kg, Day −1 (pre-dose)): 44.9 ± 5.3 g; Body Weight (g)/Day (30 mg/kg, Day −2 (pre-dose)): 44.8 ± 5.2 g; mean adipose weights versus control group (30 mg/kg): significantly lower than that of the control group; ITT blood glucose versus control group (Day 32, at 15, 30, 60 and 90 minutes after insulin): significantly lower than that of the control group
